Legend:
[1] = system: JAK2 kinase activity on STAT5; assay: pSTAT5 cell assay (MSD, TF1 cells, IL-3 stimulated); assay type: cell-based; conditions: Homo sapiens, TF-1, compounds 1 hour, 30 ng/mL IL-3 for 15 minutes
Experimental: Compounds of the disclosure were assessed for their ability to inhibit the JAK2 kinase activity on STAT5 utilizing an MSD-platform plate-based assay format. TF1 cells natively expressing STAT5 and JAK2 were serum-starved to reduce background phosphorylation levels, then cells were treated with compounds of disclosure for 1 hour with a 10-point four-fold dilution series starting at 10 μM. Cells were then stimulated with 30 ng/mL IL-3 for 15 minutes. Cells were then lysed and pSTAT5 levels were quantitated using an MSD plate-based assay with anti-STAT5 antibodies. The data were normalized and the percent activity versus log concentration of compound was fitted with a 4-parameter logistic model to generate a curve and an IC50 value.

[2] = system: Tyk2 kinase activity on STAT4; assay: pSTAT4 cell assay (MSD, NK92 cells); assay type: cell-based; conditions: compounds 1 hr, stimulated 15 minutes
In short: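 IC50 values come from 4-parameter logistic fits of normalized percent activity. Phospho-STAT was read by MSD (anti-STAT4 antibodies) in NK92 lysates after a 15 min stimulation with 30 ng/mL IL2. The serum-starved cells had been given compound for 1 h (10 points, four-fold, top 10 μM).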

[3] = system: JAK1 kinase activity on STAT3; assay: pSTAT3 cell assay (MSD, TF1 cells, IL-6 stimulated); assay type: cell-based; conditions: Homo sapiens, TF-1, compounds 1 hour, 30 ng/mL IL-6 for 15 minutes
Experimental: The inhibitory potency of compounds of the disclosure against the JAK1 kinase activity on STAT3 was evaluated using an MSD-platform plate-based assay format. TF1 cells natively expressing STAT3 and JAK1 were serum-starved to reduce background phosphorylation levels, then cells were treated with compounds of the disclosure for 1 hour with a 10-point four-fold dilution series starting at 10 μM. Cells were then stimulated with 30 ng/mL interleukin 6 (IL-6) for 15 minutes. Cells were lysed and pSTAT3 levels were quantitated using an MSD plate-based assay with anti-STAT3 antibodies. The data were normalized and the percent activity versus log concentration of compound was fitted with a 4-parameter logistic model to generate IC50 curves.

JH2 domain of human Tyk2 = molecular target: T1, JH2 domain of human Tyk2 (Homo sapiens, UniProt P29597); assay: JH2 biochemical assay (TR-FRET probe displacement); assay type: binding; conditions: JH2 biochemical assay
T1 construct: 10×His-tagged TYK2 JH2 domain (amino acid 575-876)
In short: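 A probe-displacement TR-FRET readout: compounds, tested in 3-fold, 10-point dilutions starting at […], compete with 2 nM tracer for 2 nM His-tagged JH2 (residues 575-876) detected by 0.1 nM Tb-anti-His over 60 min. IC50 comes from 4-parameter fits of normalized 520/495 nm ratios.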

T1 sequence (P29597 575-876): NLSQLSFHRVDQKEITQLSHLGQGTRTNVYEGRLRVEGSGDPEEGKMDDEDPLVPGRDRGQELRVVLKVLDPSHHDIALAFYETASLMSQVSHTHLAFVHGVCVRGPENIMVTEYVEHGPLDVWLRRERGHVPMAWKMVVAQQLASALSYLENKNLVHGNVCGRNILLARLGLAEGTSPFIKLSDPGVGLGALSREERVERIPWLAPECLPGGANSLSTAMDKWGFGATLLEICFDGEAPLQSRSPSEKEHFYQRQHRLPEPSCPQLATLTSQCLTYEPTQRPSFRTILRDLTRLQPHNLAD

Row | Structure (SMILES) | IC50 [1] [nM] | IC50 [2] [nM] | IC50 [3] [nM] | IC50 (JH2 domain of human Tyk2) [nM]
1 | Cc1cc(N2CC3(CC3)c3cnc(NC(N)=O)cc32)nc(C(C)(F)F)n1 [Example 308, 1-(1′-(2-(1,1-difluoroethyl)-6-methylpyrimidin-4-yl)-1′,2′-dihydrospiro[cyclopropane-1,3′-pyrrolo[3,2-c]pyridin]-6′-yl)urea] | ≥ 1000 | ≤ 10 | ≥ 1000 | ≤ 10
2 | CC(=O)Nc1cc2c(cn1)C(C)(C)CN2c1ccnc(C(C)(F)F)n1 [Example 38, N-(1-(2-(1,1-difluoroethyl)pyrimidin-4-yl)-3,3-dimethyl-2,3-dihydro-1H-pyrrolo[3,2-c]pyridin-6-yl)acetamide] | ≥ 1000 | ≥ 1000 | ≥ 1000 | ≥ 1000
3 | COc1cc(N2CC3(CC3)c3cnc(NC(C)=O)cc32)nc(C(C)(F)F)c1 [Example 9, N-(1′-(6-(1,1-difluoroethyl)-4-methoxypyridin-2-yl)-1′,2′-dihydrospiro[cyclopropane-1,3′-pyrrolo[3,2-c]pyridin]-6′-yl)acetamide] | ≥ 1000 | 10 to 100 | ≥ 1000 | ≤ 10
4 | COC1(c2cccc(N3CC4(CC4)c4cnc(NC(C)=O)cc43)n2)CCOC1 (stereo not shown) [Example 18, N-(1′-(6-(3-methoxytetrahydrofuran-3-yl)pyridin-2-y1)-1′,2′-dihydrospiro[cyclopropane-1,3′-pyrrolo[3,2-c]pyridin]-6′-yl)acetamide] | ≥ 1000 | 10 to 100 | ≥ 1000 | ≤ 10
5 | CC(=O)Nc1cc2c(cn1)C1(CC1)CN2c1cc(C)nc(C(C)(F)F)n1 [Example 88, N-(1′-(2-(1,1-difluoroethyl)-6-methylpyrimidin-4-yl)-1′,2′-dihydrospiro[cyclopropane-1,3′-pyrrolo[3,2-c]pyridin]-6′-yl)acetamide] | ≥ 1000 | 10 to 100 | ≥ 1000 | ≤ 10
6 | CCc1cc(N2CC3(CC3)c3cnc(NC(C)=O)cc32)nc(C(C)(F)F)n1 [Example 11, N-(1′-(2-(1,1-difluoroethyl)-6-ethylpyrimidin-4-yl)-1′,2′-dihydrospiro[cyclopropane-1,3′-pyrrolo[3,2-c]pyridin]-6′-yl)acetamide] | ≥ 1000 | 10 to 100 | ≥ 1000 | ≤ 10
7 | CC(=O)Nc1cc2c(cn1)C1(CC1)CN2c1cccc(C2COC2)n1 [Example 84, N-(1′-(6-(oxetan-3-yl)pyridin-2-yl)-1′,2′-dihydrospiro[cyclopropane-1,3′-pyrrolo[3,2-c]pyridin]-6′-yl)acetamide] | ≥ 1000 | ≥ 1000 | ≥ 1000 | 10 to 100
8 | CC(=O)Nc1cc2c(cn1)C1(CC1)CN2c1cccc(C2(F)COC2)n1 [Example 85, N-(1′-(6-(3-fluorooxetan-3-yl)pyridin-2-yl)-1′,2′-dihydrospiro[cyclopropane-1,3′-pyrrolo[3,2-c]pyridin]-6′-yl)acetamide] | ≥ 1000 | ≥ 1000 | ≥ 1000 | 10 to 100
9 | CC(=O)Nc1cc2c(cn1)C1(CCC1)CN2c1ccnc(C(C)(F)F)n1 [Example 41, N-(1′-(2-(1,1-difluoroethyl)pyrimidin-4-yl)-1′,2′-dihydrospiro[cyclobutane-1,3′-pyrrolo[3,2-c]pyridin]-6′-yl)acetamide] | ≥ 1000 | ≥ 1000 | ≥ 1000 | 10 to 100
10 | CC(=O)Nc1cc2c(cn1)C(C)(C)CN2c1nccc(C(C)(F)F)n1 [Example 39, N-(1-(4-(1,1-difluoroethyl)pyrimidin-2-yl)-3,3-dimethyl-2,3-dihydro-1H-pyrrolo[3,2-c]pyridin-6-yl)acetamide] | ≥ 1000 | ≥ 1000 | ≥ 1000 | ≥ 1000
11 | CC(=O)Nc1cc2c(cn1)C1(CCN(C)CC1)CN2c1nccc(C(C)(F)F)n1 [Example 274, N-(1′-(4-(1,1-difluoroethyl)pyrimidin-2-yl)-1-methyl-1′,2′-dihydrospiro[piperidine-4,3′-pyrrolo[3,2-c]pyridin]-6′-yl)acetamide trifluorocetate] | ≥ 1000 | ≥ 1000 | ≥ 1000 | 100 to 1000
12 | CC(=O)Nc1cc2c(cn1)C1(CC1)CN2c1cccc(C(C)(F)F)n1 [Example 12, N-(1′-(6-(1,1-difluoroethyl)pyridin-2-yl)-1′,2′-dihydrospiro[cyclopropane-1,3′-pyrrolo[3,2-c]pyridin]-6′-yl)acetamide] | ≥ 1000 | 10 to 100 | ≥ 1000 | ≤ 10
13 | CC(=O)Nc1cc2c(cn1)C1(CC1)CN2c1cccc(C2CCOC2)n1 (stereo not shown) [Example 16, N-(1′-(6-(tetrahydrofuran-3-yl)pyridin-2-yl)-1′,2′-dihydrospiro[cyclopropane-1,3′-pyrrolo[3,2-c]pyridin]-6′-yl)acetamide] | ≥ 1000 | 10 to 100 | ≥ 1000 | ≤ 10

From US20260258032A1, “TYROSINE KINASE 2 INHIBITORS AND USES THEREOF” (BIOGEN MA INC., priority 2022, published 2026)
